The source made the active and inactive calls. Cut-off read from the data, not from the text of the source, for most assays here: actives have a measured Kd and inactives only a lower limit.

Data on 7 compounds can be found in ChEMBL document CHEMBL3991601, “The target landscape of clinical kinase drugs” (Science, 2017).

In assay [1] the target is Citron Rho-interacting kinase (Homo sapiens, UniProt O14578).
The target of assay [2] is Interleukin-1 receptor-associated kinase 1 (Homo sapiens, UniProt P51617).
The target of assay [3] is T1, Serine/threonine-protein kinase PLK4 (Homo sapiens, UniProt O00444).
T1 sequence (O00444 whole entry): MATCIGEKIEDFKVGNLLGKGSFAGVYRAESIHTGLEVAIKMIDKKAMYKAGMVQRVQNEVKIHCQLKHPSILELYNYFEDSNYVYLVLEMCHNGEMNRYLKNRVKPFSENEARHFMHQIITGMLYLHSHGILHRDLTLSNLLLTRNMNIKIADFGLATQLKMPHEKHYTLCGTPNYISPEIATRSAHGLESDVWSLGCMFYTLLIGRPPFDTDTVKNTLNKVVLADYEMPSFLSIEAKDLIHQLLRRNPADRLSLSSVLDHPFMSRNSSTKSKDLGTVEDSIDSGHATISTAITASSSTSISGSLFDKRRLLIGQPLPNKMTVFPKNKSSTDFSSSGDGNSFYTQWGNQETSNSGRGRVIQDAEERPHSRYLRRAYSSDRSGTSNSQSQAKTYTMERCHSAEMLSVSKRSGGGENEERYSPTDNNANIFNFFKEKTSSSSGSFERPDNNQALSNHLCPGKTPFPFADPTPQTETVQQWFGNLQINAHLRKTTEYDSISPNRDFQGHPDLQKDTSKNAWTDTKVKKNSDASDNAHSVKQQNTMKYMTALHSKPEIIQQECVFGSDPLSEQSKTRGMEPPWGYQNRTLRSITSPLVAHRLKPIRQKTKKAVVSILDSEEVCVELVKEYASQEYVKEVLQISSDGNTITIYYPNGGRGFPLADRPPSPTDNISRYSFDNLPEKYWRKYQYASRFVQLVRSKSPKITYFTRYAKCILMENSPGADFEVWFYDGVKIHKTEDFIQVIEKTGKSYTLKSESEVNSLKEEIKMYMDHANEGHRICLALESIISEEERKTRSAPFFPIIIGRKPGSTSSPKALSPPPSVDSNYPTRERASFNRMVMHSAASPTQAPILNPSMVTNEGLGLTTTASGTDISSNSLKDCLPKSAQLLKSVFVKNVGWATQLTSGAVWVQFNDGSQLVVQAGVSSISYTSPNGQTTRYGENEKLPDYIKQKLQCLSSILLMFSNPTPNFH

Assay [4] addresses Mitogen-activated protein kinase 8 (Homo sapiens, UniProt P45983).
The target of assay [5] is GTP-binding nuclear protein Ran (Homo sapiens, UniProt P62826).
For assay [6], the target named is Mitogen-activated protein kinase 7 (Homo sapiens, UniProt Q13164).
Sequence of Mitogen-activated protein kinase 7 (Q13164 whole entry): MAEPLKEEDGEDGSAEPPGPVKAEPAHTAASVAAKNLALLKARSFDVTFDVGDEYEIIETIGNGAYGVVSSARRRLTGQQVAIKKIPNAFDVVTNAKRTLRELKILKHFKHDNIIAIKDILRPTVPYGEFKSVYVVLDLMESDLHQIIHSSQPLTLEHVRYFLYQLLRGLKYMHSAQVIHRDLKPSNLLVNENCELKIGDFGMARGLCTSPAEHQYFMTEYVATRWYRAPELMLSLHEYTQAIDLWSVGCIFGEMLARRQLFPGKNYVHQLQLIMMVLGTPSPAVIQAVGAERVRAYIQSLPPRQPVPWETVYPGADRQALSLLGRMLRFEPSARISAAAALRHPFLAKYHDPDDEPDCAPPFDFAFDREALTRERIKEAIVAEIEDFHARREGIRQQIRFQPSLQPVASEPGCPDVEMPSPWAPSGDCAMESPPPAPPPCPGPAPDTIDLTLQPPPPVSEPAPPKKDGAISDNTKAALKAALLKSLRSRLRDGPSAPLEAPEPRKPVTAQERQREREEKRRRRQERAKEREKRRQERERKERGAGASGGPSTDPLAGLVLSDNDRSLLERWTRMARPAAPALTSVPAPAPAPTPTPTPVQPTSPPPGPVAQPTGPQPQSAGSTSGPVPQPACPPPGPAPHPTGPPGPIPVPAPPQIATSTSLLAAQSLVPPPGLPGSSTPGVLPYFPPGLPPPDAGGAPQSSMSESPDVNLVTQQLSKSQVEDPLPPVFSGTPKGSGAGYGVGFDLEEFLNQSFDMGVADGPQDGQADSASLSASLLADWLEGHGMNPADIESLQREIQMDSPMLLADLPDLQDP
Assay [7] deals with T2, Serine/threonine-protein kinase LATS1 (Homo sapiens, UniProt O95835).
T2 sequence (O95835 whole entry): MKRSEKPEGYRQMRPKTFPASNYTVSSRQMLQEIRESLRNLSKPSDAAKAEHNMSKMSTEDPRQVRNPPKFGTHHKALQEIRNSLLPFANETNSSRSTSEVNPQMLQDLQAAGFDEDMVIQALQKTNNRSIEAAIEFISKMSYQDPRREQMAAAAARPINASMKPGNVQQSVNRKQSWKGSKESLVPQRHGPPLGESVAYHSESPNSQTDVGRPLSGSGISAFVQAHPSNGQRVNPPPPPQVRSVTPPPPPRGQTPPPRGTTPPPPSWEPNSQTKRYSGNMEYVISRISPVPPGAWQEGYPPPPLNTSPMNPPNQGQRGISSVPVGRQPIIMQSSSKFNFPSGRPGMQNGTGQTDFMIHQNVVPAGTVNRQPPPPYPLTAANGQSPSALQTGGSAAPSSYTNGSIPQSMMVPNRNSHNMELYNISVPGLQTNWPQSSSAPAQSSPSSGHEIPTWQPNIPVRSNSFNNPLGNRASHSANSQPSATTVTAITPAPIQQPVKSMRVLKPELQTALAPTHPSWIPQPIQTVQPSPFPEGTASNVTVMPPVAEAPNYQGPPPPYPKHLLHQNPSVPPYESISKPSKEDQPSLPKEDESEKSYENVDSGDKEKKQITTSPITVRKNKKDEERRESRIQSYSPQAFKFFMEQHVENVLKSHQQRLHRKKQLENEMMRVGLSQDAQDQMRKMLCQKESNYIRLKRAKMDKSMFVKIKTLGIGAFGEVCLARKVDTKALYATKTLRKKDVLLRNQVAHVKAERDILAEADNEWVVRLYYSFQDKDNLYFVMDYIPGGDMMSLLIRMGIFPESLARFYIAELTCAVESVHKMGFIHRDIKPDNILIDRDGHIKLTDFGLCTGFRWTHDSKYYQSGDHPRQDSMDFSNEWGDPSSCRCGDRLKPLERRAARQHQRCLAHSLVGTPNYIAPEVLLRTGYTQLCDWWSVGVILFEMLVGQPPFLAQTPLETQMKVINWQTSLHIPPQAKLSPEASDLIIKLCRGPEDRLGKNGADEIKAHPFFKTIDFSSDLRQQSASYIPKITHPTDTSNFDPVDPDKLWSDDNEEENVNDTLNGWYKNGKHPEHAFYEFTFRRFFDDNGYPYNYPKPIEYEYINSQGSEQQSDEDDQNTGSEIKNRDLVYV

Assay [8] has as its target Tyrosine-protein kinase ABL1 (Homo sapiens, UniProt P00519).
The target in the next assay is T3, Pyridoxal kinase (Homo sapiens, UniProt O00764).
T3 sequence (O00764 whole entry): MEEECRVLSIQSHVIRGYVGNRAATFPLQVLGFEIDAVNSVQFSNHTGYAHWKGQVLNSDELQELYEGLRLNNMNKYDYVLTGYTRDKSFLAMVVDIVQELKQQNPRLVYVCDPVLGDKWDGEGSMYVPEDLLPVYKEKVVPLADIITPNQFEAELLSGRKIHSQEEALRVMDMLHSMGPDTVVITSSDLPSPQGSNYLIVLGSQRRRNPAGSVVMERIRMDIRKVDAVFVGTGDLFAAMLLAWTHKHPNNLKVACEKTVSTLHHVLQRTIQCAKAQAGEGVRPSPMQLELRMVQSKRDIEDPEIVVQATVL

A further assay concerns the target Insulin receptor (Homo sapiens, UniProt P06213).
Note: in the data inactive means no Kd found up to 30 µM.

Sequence of Insulin receptor (P06213 28-758 limits assumed): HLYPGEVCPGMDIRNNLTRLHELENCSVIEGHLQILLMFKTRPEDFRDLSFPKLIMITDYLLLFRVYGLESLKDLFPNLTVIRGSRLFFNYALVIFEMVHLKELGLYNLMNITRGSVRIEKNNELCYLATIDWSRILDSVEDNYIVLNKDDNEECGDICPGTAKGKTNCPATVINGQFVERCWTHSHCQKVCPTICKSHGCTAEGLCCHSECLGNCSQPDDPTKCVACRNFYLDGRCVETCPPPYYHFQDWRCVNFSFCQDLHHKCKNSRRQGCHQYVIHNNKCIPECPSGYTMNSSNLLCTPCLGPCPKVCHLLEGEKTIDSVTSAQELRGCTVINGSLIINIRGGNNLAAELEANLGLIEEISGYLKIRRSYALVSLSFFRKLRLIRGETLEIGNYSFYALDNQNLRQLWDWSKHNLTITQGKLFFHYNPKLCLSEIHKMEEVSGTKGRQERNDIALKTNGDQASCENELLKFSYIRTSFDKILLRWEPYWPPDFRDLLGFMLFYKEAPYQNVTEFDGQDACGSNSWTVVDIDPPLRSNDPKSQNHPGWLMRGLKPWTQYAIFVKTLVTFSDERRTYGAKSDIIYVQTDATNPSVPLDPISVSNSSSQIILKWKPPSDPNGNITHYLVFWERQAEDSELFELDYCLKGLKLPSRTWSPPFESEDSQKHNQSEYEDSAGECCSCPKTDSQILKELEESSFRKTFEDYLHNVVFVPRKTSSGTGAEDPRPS
Sequence of Insulin receptor (P06213 763-1382 limits assumed): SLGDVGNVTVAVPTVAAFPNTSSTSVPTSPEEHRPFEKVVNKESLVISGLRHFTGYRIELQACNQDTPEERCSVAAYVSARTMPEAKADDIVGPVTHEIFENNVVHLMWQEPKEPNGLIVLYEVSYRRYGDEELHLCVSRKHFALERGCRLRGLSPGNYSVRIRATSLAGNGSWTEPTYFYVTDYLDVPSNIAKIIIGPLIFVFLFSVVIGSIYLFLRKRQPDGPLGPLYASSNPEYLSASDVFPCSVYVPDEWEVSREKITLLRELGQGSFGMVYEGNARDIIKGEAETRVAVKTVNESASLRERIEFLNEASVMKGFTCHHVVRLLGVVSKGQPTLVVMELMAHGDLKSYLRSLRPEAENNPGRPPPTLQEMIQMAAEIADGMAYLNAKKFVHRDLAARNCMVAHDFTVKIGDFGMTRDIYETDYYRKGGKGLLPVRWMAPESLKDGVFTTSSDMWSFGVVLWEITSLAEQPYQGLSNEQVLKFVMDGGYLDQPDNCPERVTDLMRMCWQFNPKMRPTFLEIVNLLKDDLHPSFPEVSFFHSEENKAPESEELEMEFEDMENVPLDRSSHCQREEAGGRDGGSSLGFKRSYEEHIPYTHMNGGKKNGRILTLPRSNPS
Sequence of Citron Rho-interacting kinase (O14578 whole entry): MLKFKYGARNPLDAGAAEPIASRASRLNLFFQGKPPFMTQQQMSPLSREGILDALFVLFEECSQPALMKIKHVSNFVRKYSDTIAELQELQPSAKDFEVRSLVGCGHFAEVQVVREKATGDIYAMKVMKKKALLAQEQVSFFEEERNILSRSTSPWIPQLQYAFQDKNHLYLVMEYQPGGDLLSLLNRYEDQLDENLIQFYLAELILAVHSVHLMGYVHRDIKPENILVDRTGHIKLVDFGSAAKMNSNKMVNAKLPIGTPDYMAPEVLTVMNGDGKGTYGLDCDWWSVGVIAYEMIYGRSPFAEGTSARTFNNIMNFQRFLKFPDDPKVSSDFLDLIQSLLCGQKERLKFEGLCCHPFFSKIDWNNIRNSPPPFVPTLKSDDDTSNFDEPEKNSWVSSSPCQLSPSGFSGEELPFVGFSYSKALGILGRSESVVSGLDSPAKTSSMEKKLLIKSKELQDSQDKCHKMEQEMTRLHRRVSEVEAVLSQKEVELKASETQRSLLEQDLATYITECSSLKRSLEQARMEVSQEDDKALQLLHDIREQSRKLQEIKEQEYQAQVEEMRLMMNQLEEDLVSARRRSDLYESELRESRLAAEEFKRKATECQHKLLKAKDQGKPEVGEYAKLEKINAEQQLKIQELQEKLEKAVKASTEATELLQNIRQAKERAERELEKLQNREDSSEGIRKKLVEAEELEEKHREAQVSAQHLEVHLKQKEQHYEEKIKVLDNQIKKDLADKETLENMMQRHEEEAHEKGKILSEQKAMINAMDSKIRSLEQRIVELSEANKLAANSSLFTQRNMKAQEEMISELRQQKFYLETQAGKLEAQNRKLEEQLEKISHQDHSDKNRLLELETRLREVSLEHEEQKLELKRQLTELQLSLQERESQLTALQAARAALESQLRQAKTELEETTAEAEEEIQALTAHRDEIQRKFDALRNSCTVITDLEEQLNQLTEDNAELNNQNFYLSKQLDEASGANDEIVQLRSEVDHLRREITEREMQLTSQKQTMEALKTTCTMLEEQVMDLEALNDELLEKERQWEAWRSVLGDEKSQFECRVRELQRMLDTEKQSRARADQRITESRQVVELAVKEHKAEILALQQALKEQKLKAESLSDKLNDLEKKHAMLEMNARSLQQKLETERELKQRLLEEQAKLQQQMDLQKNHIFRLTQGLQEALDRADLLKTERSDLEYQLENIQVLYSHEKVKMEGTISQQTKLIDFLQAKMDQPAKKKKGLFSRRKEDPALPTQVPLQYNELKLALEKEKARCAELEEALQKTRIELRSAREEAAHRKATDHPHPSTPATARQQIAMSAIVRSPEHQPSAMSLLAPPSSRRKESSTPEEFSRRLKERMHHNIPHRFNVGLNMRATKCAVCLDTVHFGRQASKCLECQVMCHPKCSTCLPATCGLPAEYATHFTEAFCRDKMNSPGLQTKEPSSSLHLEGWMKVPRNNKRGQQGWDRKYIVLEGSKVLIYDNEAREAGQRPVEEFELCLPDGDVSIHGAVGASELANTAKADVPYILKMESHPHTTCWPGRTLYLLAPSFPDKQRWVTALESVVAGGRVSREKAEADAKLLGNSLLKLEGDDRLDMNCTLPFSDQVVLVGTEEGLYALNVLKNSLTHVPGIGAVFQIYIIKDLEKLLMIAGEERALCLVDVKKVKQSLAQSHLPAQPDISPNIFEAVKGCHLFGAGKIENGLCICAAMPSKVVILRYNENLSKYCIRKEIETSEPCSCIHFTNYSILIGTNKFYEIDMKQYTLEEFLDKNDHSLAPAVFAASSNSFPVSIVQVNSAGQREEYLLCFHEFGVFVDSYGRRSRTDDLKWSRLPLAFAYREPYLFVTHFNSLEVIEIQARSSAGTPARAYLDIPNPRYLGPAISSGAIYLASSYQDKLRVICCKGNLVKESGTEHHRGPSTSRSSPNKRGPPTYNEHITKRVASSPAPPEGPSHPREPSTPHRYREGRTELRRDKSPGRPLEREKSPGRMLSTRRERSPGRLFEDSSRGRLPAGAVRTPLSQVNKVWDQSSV
Sequence of Mitogen-activated protein kinase 8 (P45983 whole entry): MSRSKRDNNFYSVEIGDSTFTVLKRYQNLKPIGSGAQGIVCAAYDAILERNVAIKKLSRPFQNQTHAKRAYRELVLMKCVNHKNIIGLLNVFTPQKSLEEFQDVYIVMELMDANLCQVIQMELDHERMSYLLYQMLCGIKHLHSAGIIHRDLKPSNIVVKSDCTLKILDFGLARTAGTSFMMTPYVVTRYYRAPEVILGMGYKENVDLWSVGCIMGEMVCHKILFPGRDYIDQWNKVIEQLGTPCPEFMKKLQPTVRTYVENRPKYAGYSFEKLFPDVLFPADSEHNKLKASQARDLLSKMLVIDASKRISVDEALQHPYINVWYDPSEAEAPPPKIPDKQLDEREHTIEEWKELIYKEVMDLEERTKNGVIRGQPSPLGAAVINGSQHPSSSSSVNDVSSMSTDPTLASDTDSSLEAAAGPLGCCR

Broadly, the Kd is a measure of binding affinity in units of concentration. Turning to `CN(C[C@@H]1COCCO1)S(=O)(=O)Nc1ccc2ccc3ncc(-c4cnn(C)c4)cc3c(=O)c2c1` [MK-2461], the Kd in assay [1], in assay [2], in assay [3], in [4], in assay [5] and in assay [6] was > 30 µM (inactive) in each case. Besides, the Kd (in [7]; in assay [8]; on Pyridoxal kinase; on Insulin receptor) was > 30 µM (inactive) in each case.

Turning to `Cn1cc(-c2cnc3ccc4ccc(CS(=O)(=O)NCc5ccccn5)cc4c(=O)c3c2)cn1` [MK-8033], the Kd in assay [1], in assay [2], in [3], in assay [4], in assay [5] and in assay [6] was > 30 µM (inactive) in each case. In addition, the Kd (in assay [7]; in assay [8]; at Pyridoxal kinase; on Insulin receptor) was > 30 µM (inactive) in each case.

For `FC(F)(F)c1ccc(/C=C/c2nc(COc3ccc(CCCCn4ccnn4)cc3)co2)cc1` [MUBRITINIB], the Kd in assay [1], in assay [2], in [3], in [4], in assay [5] and in assay [6] was > 30 µM (inactive) in each case. Also, the Kd (in [7]; in assay [8]; at Pyridoxal kinase; at Insulin receptor) was > 30 µM (inactive) each time.

Take `COc1ncc(-c2ccc3nccc(-c4ccnnc4)c3c2)cc1NS(=O)(=O)c1ccc(F)cc1F` [OMIPALISIB]: the Kd in assay [1], in assay [2], in assay [3], in assay [4], in assay [5] and in assay [6] was > 30 µM (inactive) throughout. The Kd (in [7]; in assay [8]; at Pyridoxal kinase; on Insulin receptor) was > 30 µM (inactive) each time.

On to `CCCCCCCCCCCCCCCCCCOP(=O)([O-])OC1CC[N+](C)(C)CC1` [PERIFOSINE], for which the Kd in assay [1], in [2], in [3], in assay [4], in [5] and in assay [6] was > 30 µM (inactive) each time. Moreover, the Kd (in assay [7]; in assay [8]; at Pyridoxal kinase; on Insulin receptor) was > 30 µM (inactive) each time.

Consider `Cc1nc(Nc2n[nH]c3c2CN(C(=O)N[C@H](CN(C)C)c2ccccc2)C3(C)C)c2sccc2n1` [PF-03758309], for which the Kd is > 30 µM (inactive) in [1]; > 30 µM (inactive) in [2]; 0.668 µM (active) in assay [3]; > 30 µM (inactive) in assay [4]; > 30 µM (inactive) in [5]; 3.89 µM (active) in assay [6]. Besides, the dissociation constant (Kd) in [7] is 0.157 µM (active); in assay [8] it was > 30 µM (inactive); on Pyridoxal kinase it was > 30 µM (inactive); on Insulin receptor, > 30 µM (inactive).

For the compound `Cc1cnc(NC(=O)Nc2cc(Br)c(C)cc2OC[C@@H]2CNCCO2)cn1` [RABUSERTIB], the Kd in [1], in assay [2], in [3], in assay [4], in [5] and in assay [6] was > 30 µM (inactive) each time. In addition, the Kd (in assay [7]; in [8]; on Pyridoxal kinase; on Insulin receptor) was > 30 µM (inactive) each time.
